The results in this text go back to patent publication US11479563B2, “Biphenyl compound or salt thereof” (TAIHO PHARMACEUTICAL CO., LTD., priority 2017, dated 2022).

Assay [1] concerns HEL cells (human acute myelocytic leukemia cell lines). In words: cells. The note with it: read-out: Cell-Growth Inhibition Test: HEL Cells IC50 (nM).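 Also: viable cell count by CellTiter-Glo 2.0 luminescence after 5 days of culture at 37 °C, growth expressed relative to DMSO-only wells as 100%.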
Assay [2] concerns NCI-H1417 cells (human small-cell lung cancer cell lines). In words: cells. The note with it: NCI-H1417, read-out: Cell-Growth Inhibition Test: NCI-H1417 Cells IC50 (nM).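 Also: growth of NCI-H1417 cells over 10 days at 37 °C, read as viable-cell luminescence by CellTiter-Glo 2.0, expressed as % of DMSO-only control wells.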

Consider `Cc1ccc(-c2ccc(C(=O)N3[C@@H]4CC[C@H]3C[C@H](N)C4)cc2-c2ccc(C#N)cc2)cc1` [Example 7], for which the half-maximal inhibitory concentration (IC50) (commonly the concentration that inhibits the measured activity by half) in assay [1] came out at 14.8 nM; in assay [2], 28 nM.

Regarding `Cc1ccc(-c2ccc(C(=O)N3[C@@H]4CC[C@H]3C[C@@H](N)C4)cc2-c2ccc(C#N)c(F)c2)c(F)c1` [Example 21], the IC50 in assay [1] was 8.34 nM; in assay [2], 32.6 nM.

With `COCCc1ccc(-c2ccc(C(=O)N3[C@@H]4CC[C@H]3C[C@H](N)C4)cc2-c2ccc(C#N)c(F)c2)c(F)c1` [Example 26], the half-maximal inhibitory concentration (IC50) in assay [1] was 4.83 nM; in assay [2], 3.15 nM.

`CC(C)(O)Cc1ccc(-c2ccc(C(=O)N3[C@@H]4CC[C@H]3C[C@H](N)C4)cc2-c2ccc(C#N)c(F)c2)c(F)c1` [Example 28]: in assay [2], the IC50 came to 4.4 nM.

With `N#Cc1ccc(-c2cc(C(=O)N3[C@@H]4CC[C@H]3C[C@H](N)C4)ccc2-c2ccc3ccccc3c2)cc1F` [Example 104], the 50% inhibitory concentration (IC50) in assay [1] came to 28.8 nM; in assay [2], 49.8 nM.

For the compound `N#Cc1ccc(-c2cc(C(=O)N3[C@@H]4CC[C@H]3C[C@H](N)C4)ccc2-c2ccc3cccnc3c2F)cc1F` [Example 105], the IC50 in assay [2] was 11.7 nM.

`CN1CCOc2cc(-c3ccc(C(=O)N4[C@@H]5CC[C@H]4C[C@H](N)C5)cc3-c3ccc(C#N)c(F)c3)ccc21` [Example 106]: the IC50 in assay [1] came to 5.74 nM; in assay [2], 6.15 nM.

As to `N#Cc1ccc(-c2cc(C(=O)N3[C@@H]4CC[C@H]3C[C@H](N)C4)ccc2-c2ccc3cccnc3c2)cc1F` [Example 107], the IC50 in assay [2] came out at 18.2 nM.

Turning to `Cn1cnc2cc(-c3ccc(C(=O)N4[C@@H]5CC[C@H]4C[C@H](N)C5)cc3-c3ccc(C#N)c(F)c3)c(F)cc21` [Example 108], the IC50 in assay [1] is 36.4 nM; in assay [2], 3.99 nM.

`Cn1nnc2cc(-c3ccc(C(=O)N4[C@@H]5CC[C@H]4C[C@H](N)C5)cc3-c3ccc(C#N)c(F)c3)c(F)cc21` [Example 109]: the IC50 was determined as 15.1 nM in assay [1] and 1.81 nM in assay [2].

`Cn1ncc2c(F)c(-c3ccc(C(=O)N4[C@@H]5CC[C@H]4C[C@H](N)C5)cc3-c3ccc(C#N)c(F)c3)ccc21` [Example 110]: the concentration for half-maximal inhibition (IC50) in assay [1] stood at 7.41 nM; in assay [2] it was 3.54 nM.

Regarding `COCCc1ccc(-c2ccc(C(=O)N3[C@@H]4CC[C@H]3C[C@H](NC(C)C)C4)cc2-c2ccc(C#N)c(F)c2)c(F)c1` [Example 112], the IC50 in assay [2] was determined as 20.5 nM.

For the compound `CC(C)N[C@@H]1C[C@H]2CC[C@@H](C1)N2C(=O)c1ccc(-c2ccc(CC(C)(C)O)cc2F)c(-c2ccc(C#N)c(F)c2)c1` [Example 113], the IC50 in assay [1] was determined as 9 nM; in assay [2], 13.7 nM.

Turning to `Cn1ncc2cc(-c3ccc(C(=O)N4[C@@H]5CC[C@H]4C[C@@H](N)C5)cc3-c3ccc(C#N)c(F)c3)c(F)cc21` [Example 124], the results for the 50% inhibitory concentration (IC50) in assay [1] and in assay [2] were 2.84 nM and 9.02 nM, respectively.

`Cn1nnc2cc(-c3ccc(C(=O)N4[C@@H]5CC[C@H]4C[C@@H](N)C5)cc3-c3ccc(C#N)c(F)c3)c(F)cc21` [Example 125]: the IC50 was determined as 7.57 nM in assay [1] and 8.43 nM in assay [2].

In the case of `Cn1cnc2cc(-c3ccc(C(=O)N4[C@@H]5CC[C@H]4C[C@@H](N)C5)cc3-c3ccc(C#N)c(F)c3)c(F)c(F)c21` [Example 126], the 50% inhibitory concentration (IC50) in assay [1] was 5.39 nM; in assay [2], 5.02 nM.

Regarding `CN1CCOc2cc(-c3ccc(C(=O)N4[C@@H]5CC[C@H]4C[C@@H](N)C5)cc3-c3ccc(C#N)c(F)c3)ccc21` [Example 128], the half-inhibitory concentration (IC50) in assay [1] came out at 5.7 nM.

As to `Cn1cnc2cc(-c3ccc(C(=O)N4[C@@H]5CC[C@H]4C[C@@H](N)C5)cc3-c3ccc(C#N)c(F)c3)c(F)cc21` [Example 130], the IC50 in assay [1] was 22.2 nM; in assay [2], 8.25 nM.

Regarding `CN(C)c1ccc(-c2ccc(C(=O)N3[C@@H]4CC[C@H]3C[C@@H](N)C4)cc2-c2ccc(C#N)c(F)c2)cn1` [Example 131], the concentration for half-maximal inhibition (IC50) in assay [1] is 15.2 nM; in assay [2] it was 30.9 nM.

As for `Cn1c(=O)sc2cc(-c3ccc(C(=O)N4[C@@H]5CC[C@H]4C[C@@H](N)C5)cc3-c3ccc(C#N)c(F)c3)ccc21` [Example 133], the concentration for half-maximal inhibition (IC50) turned out to be 17.7 nM in assay [1] and 17.9 nM in assay [2].

On to `CC(C)(O)Cn1ccc2cc(-c3ccc(C(=O)N4[C@@H]5CC[C@H]4C[C@@H](N)C5)cc3-c3ccc(C#N)c(F)c3)c(F)cc21` [Example 136], for which the values for the IC50 in assay [1] and in assay [2] were 0.9 nM and 2.39 nM, respectively.

With `CC(C)(C)n1nnc2cc(-c3ccc(C(=O)N4[C@@H]5CC[C@H]4C[C@@H](N)C5)cc3-c3ccc(C#N)c(F)c3)c(F)cc21` [Example 139], in assay [1], the IC50 was 16.9 nM.

`CC(C)(O)Cn1ncc2cc(-c3ccc(C(=O)N4[C@@H]5CC[C@H]4C[C@@H](N)C5)cc3-c3ccc(C#N)c(F)c3)c(F)cc21` [Example 142]: the half-inhibitory concentration (IC50) in assay [1] was 3.86 nM; in assay [2] it was 3.79 nM.

With `Cc1ccc(-c2ccc(C(=O)N3[C@@H]4CC[C@H]3C[C@@H](N)C4)cc2-c2ccc(C#N)c(F)c2)c(F)c1F` [Example 144], the IC50 in assay [1] came out at 6.37 nM.

Turning to `Cn1nnc2cc(-c3ccc(C(=O)N4[C@@H]5CC[C@H]4C[C@@H](N)C5)cc3-c3ccc(C#N)c(F)c3)c(F)c(F)c21` [Example 145], the IC50 in assay [1] turned out to be 1.61 nM; in assay [2], 3.29 nM.

As to `CCn1nnc2cc(-c3ccc(C(=O)N4[C@@H]5CC[C@H]4C[C@@H](N)C5)cc3-c3ccc(C#N)c(F)c3)c(F)cc21` [Example 160], the values for the IC50 in assay [1] and in assay [2] were 7.03 nM and 9.2 nM, respectively.

As for `CC(C)(O)Cn1nnc2cc(-c3ccc(C(=O)N4CC[C@H](N)C4)cc3-c3ccc(C#N)c(F)c3)c(F)c(F)c21` [Example 162], the IC50 was 17.7 nM in assay [1] and 4.69 nM in assay [2].

On to `CCCn1nnc2cc(-c3ccc(C(=O)N4[C@@H]5CC[C@H]4C[C@@H](N)C5)cc3-c3ccc(C#N)c(F)c3)c(F)cc21` [Example 168], for which the figures for the concentration for half-maximal inhibition (IC50) in assay [1] and in assay [2] were 5.29 nM and 7.29 nM, respectively.

As for `CC(C)(O)Cn1ccc2cc(-c3ccc(C(=O)N4C5CCC4C(N)C5)cc3-c3ccc(C#N)c(F)c3)c(F)cc21` (stereo not shown) [Example 171], the concentration for half-maximal inhibition (IC50) in assay [1] was 0.09 nM.

Regarding `Cn1nnc2cc(-c3ccc(C(=O)N4C5CCC4C(N)C5)cc3-c3ccc(C#N)c(F)c3)c(F)c(F)c21` (stereo not shown) [Example 175], the 50% inhibitory concentration (IC50) in assay [1] was 0.2 nM.

`CC(C)(O)Cn1ncc2cc(-c3ccc(C(=O)N4C5CCC4C(N)C5)cc3-c3ccc(C#N)c(F)c3)c(F)cc21` (stereo not shown) [Example 176]: the IC50 in assay [1] stood at 0.2 nM.

In the case of `CC(C)(O)Cn1nc(Br)c2cc(-c3ccc(C(=O)N4[C@@H]5CC[C@H]4C[C@@H](N)C5)cc3-c3ccc(C#N)c(F)c3)c(F)cc21` [Example 178, 5′-((3-endo)-3-amino-8-azabicyclo[3.2.1]octane-8-carbonyl)-2′-(3-bromo-6-fluoro-1-(2-hydroxy-2-methylpropyl)-1H-indazol-5-yl)-3-fluoro-[1,1′-biphenyl]-4-carbonitrile], the IC50 in assay [1] was 3.57 nM; in assay [2], 3.03 nM.

In the case of `CC(C)(O)Cn1cc(C(=O)O)c2cc(-c3ccc(C(=O)N4C5CCC4C(N)C5)cc3-c3ccc(C#N)c(F)c3)c(F)cc21` [Example 222, 5-(5-((1S,2S,4R)-rel-2-amino-7-azabicyclo[2.2.1]heptane-7-carbonyl)-4′-cyano-3′-fluoro-[1,1′-biphenyl]-2-yl)-6-fluoro-1-(2-hydroxy-2-methylpropyl)-1H-indole-3-carboxylic acid-isomer-X], the IC50 in assay [1] turned out to be 38 nM; in assay [2], 41.8 nM.

For the compound `Cn1cc(C(=O)O)c2cc(-c3ccc(C(=O)N4C5CCC4C(N)C5)cc3-c3ccc(C#N)c(F)c3)c(F)cc21` [Example 224, 5-(5-((1S,2S,4R)-rel-2-amino-7-azabicyclo[2.2.1]heptane-7-carbonyl)-4′-cyano-3′-fluoro-[1,1′-biphenyl]-2-yl)-6-fluoro-1-methyl-1H-indole-3-carboxylic acid-isomer-X], the IC50 in assay [1] came out at 46.2 nM.

In the case of `CC(C)(O)Cn1nnc2cc(-c3ccc(C(=O)N4C5CCC4C(N)C5)cc3-c3ccc(C#N)c(F)c3)c(F)c(C(F)F)c21` [Example 246, 5′-((1S,2S,4R)-rel-2-amino-7-azabicyclo[2.2.1]heptane-7-carbonyl)-2′-(7-(difluoromethyl)-6-fluoro-1-(2-hydroxy-2-methylpropyl)-1H-benzo[d][1,2,3]triazol-5-yl)-3-fluoro-[1,1′-biphenyl]-4-carbonitrile-isomer-X], the 50% inhibitory concentration (IC50) in assay [1] was found to be 0.37 nM; in assay [2], 0.81 nM.

In the case of `CC(C)(O)Cn1nnc2cc(-c3ccc(C(=O)N4C5CCC4C(N)C5)cc3-c3ccc(C#N)c(F)c3)c(F)c(C3CC3)c21` [Example 279, 5′-((1R,2R,4S)-rel-2-amino-7-azabicyclo[2.2.1]heptane-7-carbonyl)-2′-(7-cyclopropyl-6-fluoro-1-(2-hydroxy-2-methylpropyl)-1H-benzo[d][1,2,3]triazol-5-yl)-3-fluoro-[1,1′-biphenyl]-4-carbonitrile-isomer-X], the IC50 came out at 1.59 nM in assay [1] and 0.9 nM in assay [2].
